Measured values taken from patent US20230303513A1, “OXOPYRROLIDINE UREA FPR2 AGONISTS” (BRISTOL-MYERS SQUIBB COMPANY, priority 2020, published 2023).

Key:
human FPR2 = human FPR2 (Homo sapiens (Human), UniProt P25090); assay: FPR2 cyclic adenosine monophosphate (cAMP) assay; format: cell-based; conditions: CHO cells overexpressing human FPR2; forskolin 5 μM, IBMX 200 μM; inhibition of cAMP production, HTRF; read-out: hFPR2 cAMP2 EC50
Source text: (§1) N-formyl peptide receptors (FPRs) are a family of chemo attractant receptors that facilitate leukocyte response during inflammation. FPRs belong to the seven-transmembrane G protein-coupled receptor superfamily and are linked to inhibitory G-proteins (Gi). Three family members (FPR1, FPR2 and FPR3) have been identified in humans and are predominantly found in myeloid cells with varied distribution and have also been reported in multiple organs and tissues. After agonist binding, the FPRs activate a multitude of physiological pathways, such as intra cellular signaling transduction, Ca^21 mobilization and transcription. The family interacts with a diverse set of ligands that includes proteins, polypeptides and fatty acid metabolites which activate both pro-inflammatory and pro-resolution downstream responses. FPR2 and FPR1 Cyclic Adenosine Monophosphate (cAMP) Assays were used to measure the activity of the compounds in this patent.
(§2) FPR2 and FPR1 Cyclic Adenosine Monophosphate (cAMP) Assays. A mixture of forskolin (5 μM final for FPR2 or 10 μM final for FPR1) and IBMX (200 μM final) were added to 384-well Proxiplates (Perkin-Elmer) pre-dotted with test compounds in DMSO (1% final) at final concentrations in the range of 0.020 nM to 100 μM. Chinese Hamster Ovary cells (CHO) overexpressing human FPR1 or human FPR2 receptors were cultured in F-12 (Ham's) medium supplemented with 10% qualified FBS, 250 μg/ml zeocin and 300 μg/ml hygromycin (Life Technologies). Reactions were initiated by adding 2,000 human FPR2 cells per well or 4,000 human FPR1 cells per well in Dulbecco's PBS (with calcium and magnesium) (Life Technologies) supplemented with 0.1% BSA (Perkin-Elmer). The reaction mixtures were incubated for 30 min at room temperature. The level of intracellular cAMP was determined using the HTRF HiRange cAMP assay reagent kit (Cisbio) according to manufacturer's instruction. Solutions of cryptate conjugated anti-cAMP and d2 flurorophore-labelled cAMP were made in a supplied lysis buffer separately. Upon completion of the reaction, the cells were lysed with equal volume of the d2-cAMP solution and anti-cAMP solution. After a 1-h room temperature incubation, time-resolved fluorescence intensity was measured using the Envision (Perkin-Elmer) at 400 nm excitation and dual emission at 590 nm and 665 nm. A calibration curve was constructed with an external cAMP standard at concentrations ranging from 1 μM to 0.1 μM by plotting the fluorescent intensity ratio from 665 nm emission to the intensity from the 590 nm emission against cAMP concentrations. The potency and activity of a compound to inhibit cAMP production was then determined by fitting to a 4-parametric logistic equation from a plot of cAMP level versus compound concentrations.

human FPR1 = human FPR1 (Homo sapiens (Human), UniProt P21462); assay: FPR1 cyclic adenosine monophosphate (cAMP) assay; format: cell-based; conditions: CHO cells overexpressing human FPR1; forskolin 10 μM, IBMX 200 μM; inhibition of cAMP production, HTRF; read-out: hFPR1 cAMP EC50
Chain of human FPR1 (P21462 whole entry): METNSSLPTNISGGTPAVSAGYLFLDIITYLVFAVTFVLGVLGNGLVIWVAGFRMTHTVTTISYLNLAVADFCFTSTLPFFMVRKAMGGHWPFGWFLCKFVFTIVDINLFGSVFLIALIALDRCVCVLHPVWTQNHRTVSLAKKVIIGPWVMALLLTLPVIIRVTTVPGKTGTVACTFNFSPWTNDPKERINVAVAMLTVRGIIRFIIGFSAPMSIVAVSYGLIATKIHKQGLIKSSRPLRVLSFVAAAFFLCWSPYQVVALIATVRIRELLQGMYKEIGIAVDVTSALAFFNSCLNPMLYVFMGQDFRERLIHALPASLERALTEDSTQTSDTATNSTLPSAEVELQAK
Source text: as §1, §2

Chain of human FPR2 (P25090 whole entry): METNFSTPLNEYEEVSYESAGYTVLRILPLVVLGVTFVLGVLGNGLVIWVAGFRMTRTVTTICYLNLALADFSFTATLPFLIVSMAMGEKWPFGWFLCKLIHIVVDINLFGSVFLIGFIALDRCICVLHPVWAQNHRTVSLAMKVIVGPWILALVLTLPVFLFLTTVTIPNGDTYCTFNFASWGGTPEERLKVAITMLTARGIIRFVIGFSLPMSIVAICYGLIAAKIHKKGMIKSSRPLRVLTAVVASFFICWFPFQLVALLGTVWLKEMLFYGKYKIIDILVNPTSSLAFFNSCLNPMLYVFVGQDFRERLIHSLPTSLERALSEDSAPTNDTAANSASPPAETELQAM

Row | SMILES | EC50 (human FPR2) | EC50 (human FPR1)
1 | COCC(CO)n1cccc(N2C[C@@H](c3c(F)cc(OC)cc3F)[C@H](NC(=O)NC3CCc4cc(OC)ccc4C3)C2=O)c1=O (some centres unmarked) [Example 81] | 5.9 nM | 1.5 nM
2 | COCCn1cccc(N2C(=O)[C@@H](NC(=O)NC3CCc4cc(OC)ccc4C3(C)C)[C@H](c3c(F)cc(OC)cc3F)[C@@H]2C)c1=O (some centres unmarked) [Example 40] | 5.3 nM | 200 nM
3 | COc1cc(F)c([C@@H]2CN(c3cccn(CC(O)C(F)(F)F)c3=O)C(=O)[C@H]2NC(=O)NC2CCc3cc(OC)ccc3C2)c(F)c1 (some centres unmarked) [Example 79] | 7.3 nM | 
4 | CNC(=O)C(C)Nc1ccnc(N2C[C@@H](c3c(F)cc(OC)cc3F)[C@H](NC(=O)N[C@H]3CC[C@H](C(F)F)CC3)C2=O)c1C(F)(F)F (single isomer, unassigned) [Example 75] | 21 nM | > 1000 nM
5 | COCC(CO)n1cccc(N2C[C@@H](c3c(F)cc(OC)cc3F)[C@H](NC(=O)NC3CCc4cc(OC)ccc4C3)C2=O)c1=O (single isomer, unassigned) [Example 3] | 6 nM | 20 nM
6 | COCCn1cccc(N2C[C@@H](c3ccc(OC)cc3)[C@H](NC(=O)NC3CCc4cc(OC)ccc4C3)C2=O)c1=O (some centres unmarked) [Example 42] | 5.8 nM | 1.7 nM
7 | COCC(CO)n1cccc(N2C[C@@H](c3c(F)cc(OC)cc3F)[C@H](NC(=O)NC3CCc4cc(OC)ccc4C3)C2=O)c1=O (some centres unmarked) [Example 82] | 9.9 nM | 0.8 nM
8 | COc1cc(F)c([C@@H]2CN(c3cccn(CC(O)C(F)(F)F)c3=O)C(=O)[C@H]2NC(=O)NC2CCc3cc(OC)ccc3C2)c(F)c1 (single isomer, unassigned) [Example 78] | 50 nM | 100 nM
9 | COc1cc(F)c([C@@H]2CN(c3nccc(N4CCN5CCCC5C4)c3C(F)(F)F)C(=O)[C@H]2NC(=O)N[C@H]2CC[C@H](C(F)F)CC2)c(F)c1 (single isomer, unassigned) [Example 102] | 7.9 nM | 1000 nM
10 | COCCn1cccc(N2C(=O)[C@@H](NC(=O)NC3CCc4cc(OC)ccc4C3(C)C)[C@H](c3c(F)cc(OC)cc3F)[C@@H]2C)c1=O (some centres unmarked) [Example 62] | 36 nM | 23 nM
11 | COc1cc(F)c([C@@H]2CN(c3nccc(N4CCN5CCCC5C4)c3C(F)(F)F)C(=O)[C@H]2NC(=O)N[C@H]2CC[C@H](C(F)F)CC2)c(F)c1 (single isomer, unassigned) [Example 103] | 17 nM | 2100 nM
12 | COc1cc(F)c([C@@H]2CN(c3ncccc3C(F)(F)F)C(=O)[C@H]2NC(=O)NC2CCc3cc(Cl)ccc3C2)c(F)c1 (some centres unmarked) [Example 43] | 6 nM | 7.1 nM
13 | COc1cc(F)c([C@@H]2CN(c3nccc(N4CCOCC4)c3C(F)(F)F)C(=O)[C@H]2NC(=O)N[C@H]2CC[C@H](C(F)F)CC2)c(F)c1 [Example 108] | 670 nM | 3500 nM
14 | COc1cc(F)c([C@@H]2CN(c3nccc(N4CCC(C)(O)C4)c3C(F)(F)F)C(=O)[C@H]2NC(=O)N[C@H]2CC[C@H](C(F)F)CC2)c(F)c1 (single isomer, unassigned) [Example 91] | 7.7 nM | 780 nM
15 | COc1cc(F)c([C@@H]2CN(c3ncccc3C(F)(F)F)C(=O)[C@H]2NC(=O)NC2CCc3cc(OC)ccc3C2(C)C)c(F)c1 (some centres unmarked) [Example 58] | 29 nM | 220 nM
16 | COc1cc(F)c([C@@H]2CN(c3c(OC)ccn(C)c3=O)C(=O)[C@H]2NC(=O)NC2CCc3cc(OC)ccc3C2)c(F)c1 (some centres unmarked) [Example 57] | 26 nM | 1.2 nM
17 | COc1cc(F)c([C@@H]2CN(c3ncccc3C(F)(F)F)C(=O)[C@H]2NC(=O)NC2CCc3cc(OC)ccc3C2)c(F)c1 (some centres unmarked) [Example 47] | 7.3 nM | > 10000 nM
18 | COc1cc(F)c([C@@H]2CN(c3nccc(N4C[C@@H]5C[C@H]4CN5C)c3C(F)(F)F)C(=O)[C@H]2NC(=O)N[C@H]2CC[C@H](C(F)F)CC2)c(F)c1 (single isomer, unassigned) [Example 96] | 4.6 nM | 3400 nM
19 | CCn1cccc(N2C[C@@H](c3c(F)cc(OC)cc3F)[C@H](NC(=O)NC3CCc4cc(OC)ccc4C3(C)C)C2=O)c1=O (some centres unmarked) [Example 52] | 13 nM | 593 nM
20 | COc1cc(F)c([C@@H]2CN(c3nccc(NC4CCOCC4)c3C(F)(F)F)C(=O)[C@H]2NC(=O)N[C@H]2CC[C@H](C(F)F)CC2)c(F)c1 [Example 68] | 27 nM | 4800 nM
21 | COc1cc(F)c([C@@H]2CN(c3cccn(CC(O)C(F)(F)F)c3=O)C(=O)[C@H]2NC(=O)NC2CCc3cc(OC)ccc3C2)c(F)c1 (single isomer, unassigned) [Example 77] | 15 nM | 
22 | COc1cc(F)c([C@H]2[C@H](NC(=O)NC3CCc4cc(OC)ccc4C3)C(=O)N(c3cccn(CCO)c3=O)[C@H]2C)c(F)c1 (single isomer, unassigned) [Example 90] | 4 nM | 3.7 nM
23 | COc1cc(F)c([C@@H]2CN(c3nccc(N4CCC(C)(O)C4)c3C(F)(F)F)C(=O)[C@H]2NC(=O)N[C@H]2CC[C@H](C(F)F)CC2)c(F)c1 (single isomer, unassigned) [Example 92] | 44 nM | > 5000 nM
24 | CCn1cccc(N2C[C@@H](c3c(F)cc(OC)cc3F)[C@H](NC(=O)NC3CCc4cc(OC)ccc4C3(C)C)C2=O)c1=O (some centres unmarked) [Example 61] | 33 nM | 17 nM

Stronger by EC50 (human FPR2), values ahead:

Row | EC50 (human FPR2) | EC50 (human FPR1) | SMILES
25 | 0.4 nM | 1400 nM | COc1cc(F)c([C@@H]2CN(c3nccc(N4C[C@@H]5C[C@H]4CN5C)c3C(F)(F)F)C(=O)[C@H]2NC(=O)N[C@H]2CC[C@H](C(F)F)CC2)c(F)c1 (single isomer, unassigned) [Example 97]
26 | 3.3 nM | 2.4 nM | COCCn1cccc(N2C(=O)[C@@H](NC(=O)NC3CCc4cc(OC)ccc4C3)[C@H](c3c(F)cc(OC)cc3F)[C@@H]2C)c1=O (some centres unmarked) [Example 29]
27 | 0.7 nM | 6 nM | CCn1cccc(N2C[C@@H](c3ccc(OC)cc3)[C@H](NC(=O)NC3CCc4cc(Cl)ccc4C3)C2=O)c1=O (some centres unmarked) [Example 9]
28 | 0.2 nM |  | COCCn1cccc(N2C[C@@H](c3ccc(OC)cc3)[C@H](NC(=O)NC3CCc4cc(Cl)ccc4C3)C2=O)c1=O (some centres unmarked) [Example 5]
29 | 1.5 nM | 13.2 nM | COc1cc(F)c([C@H]2[C@H](NC(=O)NC3CCc4cc(OC)ccc4C3)C(=O)N(c3ncccc3OC)[C@H]2C)c(F)c1 (some centres unmarked) [Example 15]
30 | 1 nM | 12 nM | COc1cc(F)c([C@@H]2CN(c3c(C)ccn(CCO)c3=O)C(=O)[C@H]2NC(=O)NC2CCc3cc(OC)ccc3C2)c(F)c1 (single isomer, unassigned) [Example 83]
31 | 0.5 nM | 0.7 nM | COCCn1ccc(C)c(N2C[C@@H](c3c(F)cc(OC)cc3F)[C@H](NC(=O)NC3CCc4cc(OC)ccc4C3)C2=O)c1=O (some centres unmarked) [Example 7]
32 | 1.5 nM | 0.4 nM | COc1cc(F)c([C@@H]2CN(c3cccn(CCO)c3=O)C(=O)[C@H]2NC(=O)NC2CCc3cc(OC)ccc3C2)c(F)c1 (some centres unmarked) [Example 21]
33 | 3.6 nM | 2500 nM | COc1cc(F)c([C@@H]2CN(c3nccc(N4CCN(C)CC4)c3C(F)(F)F)C(=O)[C@H]2NC(=O)N[C@H]2CC[C@H](C(F)F)CC2)c(F)c1 [Example 30]
34 | 2.8 nM | 1630 nM | COc1cc(F)c([C@@H]2CN(c3nccc(N4C[C@@H](C)N(C)[C@@H](C)C4)c3C(F)(F)F)C(=O)[C@H]2NC(=O)N[C@H]2CC[C@H](C(F)F)CC2)c(F)c1 [Example 25]
35 | 2.8 nM |  | COCCn1cccc(N2C(=O)[C@@H](NC(=O)NC3CCc4cc(OC)ccc4C3)[C@H](c3c(F)cc(OC)cc3F)[C@@H]2C)c1=O (some centres unmarked) [Example 26]
36 | 1.8 nM | 0.2 nM | COc1cc(F)c([C@H]2[C@H](NC(=O)NC3CCc4cc(OC)ccc4C3)C(=O)N(c3ncccc3OC)[C@H]2C)c(F)c1 (some centres unmarked) [Example 18]
37 | 1.6 nM | > 10000 nM | COc1cc(F)c([C@@H]2CN(c3nccc(N4CC(C)(O)C4)c3C(F)(F)F)C(=O)[C@H]2NC(=O)N[C@H]2CC[C@H](C(F)F)CC2)c(F)c1 [Example 101]
38 | 1.3 nM |  | CCn1cccc(N2C[C@@H](c3ccc(OC)cc3)[C@H](NC(=O)NC3CCc4cc(OC)ccc4C3)C2=O)c1=O (some centres unmarked) [Example 13]
